Measurements published in patent publication US20160114000A1 (Merck Sharp & Dohme, published 2016).
*1 amine or outer side, *2 acyl side, *3 side chain or, on linkers, in order; H or OH if unused. Where a SMILES comes first, the peptide text is derived from it. Side-chain parts run from the residue outwards. [ ]: non-standard residue; d: D form. The star is where a group is joined. γGlu = O=C(O)[C@H](CCC(=O)[*:2])N[*:1]; Palmitoyl = CCCCCCCCCCCCCCCC(=O)*

Columns and labels:
[1] = system: diet-induced obese (DIO) mice (strain C57Bl6/NTac); assay: Cumulative body weight change (grams) in DIO mice, Example 18; assay type: in vivo; settings: day 9; for weight loss: 9 nmol/kg daily
Description: Mice were administered a vehicle control or a dose of a peptide daily for nine days. […] The peptide of SEQ ID NO: 9 was administered at doses of 9 and 25 nmol/kg. Cumulative body weight change (grams) was measured each day of the study except on day 3. Results are shown in FIG. 1 and are expressed as mean±SEM.

[2] = system: DIO mice (strain C57Bl6/NTac); assay: Body weight change (%) relative to vehicle in DIO mice, second study, Example 19; assay type: in vivo; settings: eight days
Description: In addition, the peptide of SEQ ID NO: 8 was administered at 15 nmol/kg, while the peptide of SEQ ID NOs: 10 and 11 were administered at 3 nmol/kg. Body weight was measured daily for eight days and body weight change is expressed as percent relative to vehicle (FIG. 2).

human GLP-1R = target: T1, human GLP-1R (Homo sapiens, UniProt P43220); assay: cAMP protocol, cells expressing human GLP-1R; assay type: cell-based; settings: cAMP production, 20% human serum in assay buffer; read-out: GLPR1 EC50 (nM) human
T1 construct: expressed in transfected cells; grown under Geneticin and Hygromycin selection
T1 sequence (P43220 24-463): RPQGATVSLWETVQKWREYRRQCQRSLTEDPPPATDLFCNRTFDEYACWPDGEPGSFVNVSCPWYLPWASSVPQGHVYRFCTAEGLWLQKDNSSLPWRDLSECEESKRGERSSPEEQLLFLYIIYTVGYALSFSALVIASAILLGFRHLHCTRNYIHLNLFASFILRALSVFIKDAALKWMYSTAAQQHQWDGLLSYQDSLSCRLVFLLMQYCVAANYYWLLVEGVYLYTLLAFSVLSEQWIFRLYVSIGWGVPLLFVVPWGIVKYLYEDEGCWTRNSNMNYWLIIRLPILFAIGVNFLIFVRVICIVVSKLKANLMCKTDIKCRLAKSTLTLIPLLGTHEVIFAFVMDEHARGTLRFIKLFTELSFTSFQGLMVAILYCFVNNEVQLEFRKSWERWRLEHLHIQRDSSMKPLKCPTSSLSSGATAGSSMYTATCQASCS
Description: The cAMP protocol was as follows.
(§1) Peptides were dissolved in 100% DMSO and serially diluted to generate 11 point titrations. The peptide solutions were then transferred into 384-well assay plates (150 nL/well). Assay ready frozen cells expressing human GLP-1R or human GCGR were suspended in growth media consisting of DMEM/F12 medium (GIBCO), 10% FBS (GIBCO), lx P/S (GIBCO), 800 μg/mL Geneticin (GIBCO), and 300 μg/mL Hygromycin (Invitrogen). Cells were then diluted in assay buffer consisting of PBS (GIBCO), 7.5% BSA (Perkin Elmer), 100 μM RO 20-1724 (Sigma), and 20% human serum (MP Biomedical). The cell suspensions (15 μL) were then added to the assay plates containing the peptide solutions (30,000 cells/well for human GCGR; 20,000 cells/well for GLP1R). The cells were incubated for 1 hour at room temperature in the dark. Production of cAMP was determined using HitHunter™ cAMPXS kits (DiscoverX). ED buffer (20 μL) was then added to each well and the plates were incubated for 1 hour at room temperature in the dark. Subsequently, EA buffer (20 μL) was added to each well, and the plates were incubated for 1-18 hours at room temperature in the dark. Luminescence was measured using an EnVision Multilabel plate reader (Perkin Elmer). EC50 values were calculated using ADA data analyzer software.

human GCGR = target: T2, human GCGR (Homo sapiens, UniProt P47871); assay: cAMP protocol, cells expressing human GCGR; assay type: cell-based; settings: for EC50: cAMP production, 20% human serum in assay buffer; for hGCGR/hGLP1R (hTone): ratio of EC50 at human GCGR to EC50 at human GLP1R
T2 construct: expressed in transfected cells; grown under Geneticin and Hygromycin selection
T2 sequence (P47871 26-477): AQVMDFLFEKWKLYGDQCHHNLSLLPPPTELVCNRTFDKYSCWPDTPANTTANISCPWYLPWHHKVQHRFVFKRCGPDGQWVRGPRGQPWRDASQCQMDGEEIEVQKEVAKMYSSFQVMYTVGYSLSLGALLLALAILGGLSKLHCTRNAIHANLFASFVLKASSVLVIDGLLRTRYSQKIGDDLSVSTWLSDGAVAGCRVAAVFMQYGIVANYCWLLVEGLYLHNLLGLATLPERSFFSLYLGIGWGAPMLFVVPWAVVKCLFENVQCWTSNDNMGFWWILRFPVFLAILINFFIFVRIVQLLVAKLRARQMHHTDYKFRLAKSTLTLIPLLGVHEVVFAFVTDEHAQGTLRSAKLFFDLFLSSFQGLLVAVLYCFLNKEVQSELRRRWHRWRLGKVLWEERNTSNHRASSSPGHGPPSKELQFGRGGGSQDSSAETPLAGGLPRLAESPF
Description: The cAMP protocol was as follows.
as §1

[3] = system: DIO mice (strain C57Bl6/NTac); assay: Ambient glucose levels in DIO mice, Example 21; assay type: in vivo; settings: for changes in ambient glucose: 9 nmol/kg, after 9 days of dosing
Description: In addition to cumulative body weight change, ambient glucose levels of the DIO mice (strain C57Bl6/NTac) were measured periodically throughout the study.

[4] = system: DIO mice (strain C57Bl6/NTac); assay: Cumulative food intake in DIO mice, Example 20; assay type: in vivo; settings: 3 nmol/kg, after 8 days of dosing, vs vehicle
Description: For the studies in Examples 18, 19, 20, and 21, diet induced obesity (DIO) mice (strain C57Bl6/NTac; 20 weeks on a high fat diet, about 47 g) were divided into groups of eight mice per group and the initial average body weight, food intake and basal glucose of each group were matched before peptide administration. Each group of mice was subcutaneously injected daily with a dose of Co-agonist Peptide or vehicle control for 7 to 10 days. The peptides tested in this study were Co-agonist Peptides 1, 2, 3, 4, 5, and 6 (SEQ ID NOs: 6, 7, 8, 9, 10, and 11, respectively) at the doses that varied from 3 nmol/kg to 25 nmol/kg. Body weight, food intake and basal glucose were measured periodically during treatment.

| SMILES | weight loss [1] | body weight loss ([1]; 25 nmol/kg daily) [grams] | weight loss, percent relative to vehicle ([2]; 9 nmol/kg daily) | EC50 (human GLP-1R) [nM] | EC50 (human GCGR) [nM] | hGCGR/hGLP1R (hTone) (human GCGR) | changes in ambient glucose [3] | decrease in ambient glucose compared to vehicle ([3]; 25 nmol/kg, second day of dosing) [mg/dL] | food intake [4] | weight loss, percent relative to vehicle ([2]; 3 nmol/kg daily) |
| --- | --- | --- | --- | --- | --- | --- | --- | --- | --- | --- |
| CCCCCCCCCCCCCCCC(=O)N[C@@H](CCC(=O)N[C@@H](CCC(=O)NCCCC[C@H](NC(=O)[C@H](CC(=O)O)NC(=O)[C@H](CO)NC(=O)[C@@H](NC(=O)[C@H](Cc1ccccc1)NC(=O)[C@@H](NC(=O)CNC(=O)[C@@H](NC(=O)C(C)(C)NC(=O)[C@@H](N)Cc1c[nH]cn1)C(C)C)[C@@H](C)O)[C@@H](C)O)C(=O)N[C@@H](CO)C(=O)N[C@@H](CCCCN)C(=O)N[C@@H](Cc1ccc(O)cc1)C(=O)N[C@@H](CC(C)C)C(=O)N[C@@H](CC(=O)O)C(=O)NC(C)(C)C(=O)N[C@@H](CCCNC(=N)N)C(=O)N[C@@H](C)C(=O)N[C@@H](C)C(=O)N[C@@H](CCC(N)=O)C(=O)N[C@@H](CC(=O)O)C(=O)N[C@@H](Cc1ccccc1)C(=O)N[C@H](C(=O)N[C@@H](CCC(N)=O)C(=O)N[C@@H](Cc1c[nH]c2ccccc12)C(=O)N[C@@H](CC(C)C)C(=O)N[C@@H](CCCC)C(=O)N[C@@H](CC(=O)O)C(=O)N[C@H](C(N)=O)[C@@H](C)O)C(C)C)C(=O)O)C(=O)O [SEQ ID NO: 9] | ~3 grams | 10.5 | approximately 5% | 0.1 | 0.89 | 8.98 | did not exhibit significant changes | -75 | – | – |
| CCCCCCCCCCCCCCCC(=O)N[C@@H](CCC(=O)NCCCC[C@H](NC(=O)[C@H](CC(=O)O)NC(=O)[C@H](CO)NC(=O)[C@@H](NC(=O)[C@H](Cc1ccccc1)NC(=O)[C@@H](NC(=O)CNC(=O)[C@H](CCC(N)=O)NC(=O)[C@@H](CO)NC(=O)[C@@H](N)Cc1c[nH]cn1)[C@@H](C)O)[C@@H](C)O)C(=O)N[C@@H](CO)C(=O)N[C@@H](CCCCN)C(=O)N[C@@H](Cc1ccc(O)cc1)C(=O)N[C@@H](CC(C)C)C(=O)N[C@@H](CC(=O)O)C(=O)N[C@H](C(=O)N[C@@H](CCCNC(=N)N)C(=O)N[C@@H](C)C(=O)N[C@@H](C)C(=O)N[C@@H](CCC(N)=O)C(=O)N[C@@H](CC(=O)O)C(=O)N[C@@H](Cc1ccccc1)C(=O)N[C@H](C(=O)N[C@@H](CCC(N)=O)C(=O)N[C@@H](Cc1c[nH]c2ccccc12)C(=O)N[C@@H](CC(C)C)C(=O)N[C@@H](CC(C)C)C(=O)N[C@@H](CC(=O)O)C(=O)N[C@H](C(N)=O)[C@@H](C)O)C(C)C)C(C)C)C(=O)O [SEQ ID NO: 7] (H-H[dS]QGTFTSDK([γGlu-Palmitoyl])SKYLDVRAAQDFVQWLLDT-NH2; N-terminus assumed) | ~3 grams | – | approximately 5% | 0.16 | 0.041 | 0.30 | did not exhibit significant changes | – | – | – |
| CCCCCCCCCCCCCCCC(=O)N[C@@H](CCC(=O)N[C@@H](CCC(=O)NCCCC[C@H](NC(=O)[C@H](CC(=O)O)NC(=O)[C@H](CO)NC(=O)[C@@H](NC(=O)[C@H](Cc1ccccc1)NC(=O)[C@@H](NC(=O)CNC(=O)[C@H](CCC(N)=O)NC(=O)[C@@H](CO)NC(=O)[C@@H](N)Cc1c[nH]cn1)[C@@H](C)O)[C@@H](C)O)C(=O)N[C@@H](CO)C(=O)N[C@@H](CCCCN)C(=O)N[C@@H](Cc1ccc(O)cc1)C(=O)N[C@@H](CC(C)C)C(=O)N[C@@H](CC(=O)O)C(=O)N[C@@H](CCC(=O)O)C(=O)N[C@@H](CCCNC(=N)N)C(=O)N[C@@H](C)C(=O)N[C@@H](C)C(=O)N[C@@H](CCC(N)=O)C(=O)N[C@@H](CC(=O)O)C(=O)N[C@@H](Cc1ccccc1)C(=O)N[C@H](C(=O)N[C@@H](CCC(N)=O)C(=O)N[C@@H](Cc1c[nH]c2ccccc12)C(=O)N[C@@H](CC(C)C)C(=O)N[C@@H](CC(C)C)C(=O)N[C@@H](CC(=O)O)C(=O)N[C@H](C(N)=O)[C@@H](C)O)C(C)C)C(=O)O)C(=O)O [SEQ ID NO: 11, reference compound] | approximately 13 grams | – | – | – | – | 1.30 | – | – | no change in food intake | no weight loss efficacy |
| CCCCCCCCCCCCCCCC(=O)N[C@@H](CCC(=O)N[C@@H](CCC(=O)NCCCC[C@H](NC(=O)[C@H](CC(=O)O)NC(=O)[C@H](CO)NC(=O)[C@@H](NC(=O)[C@H](Cc1ccccc1)NC(=O)[C@@H](NC(=O)CNC(=O)[C@H](CCC(N)=O)NC(=O)[C@@H](CO)NC(=O)[C@@H](N)Cc1c[nH]cn1)[C@@H](C)O)[C@@H](C)O)C(=O)N[C@@H](CO)C(=O)N[C@@H](CCCCN)C(=O)N[C@@H](Cc1ccc(O)cc1)C(=O)N[C@@H](CC(C)C)C(=O)N[C@@H](CC(=O)O)C(=O)N[C@@H](C)C(=O)N[C@@H](CCCNC(=N)N)C(=O)N[C@@H](C)C(=O)N[C@@H](C)C(=O)N[C@@H](CCC(N)=O)C(=O)N[C@@H](CC(=O)O)C(=O)N[C@@H](Cc1ccccc1)C(=O)N[C@H](C(=O)N[C@@H](CCC(N)=O)C(=O)N[C@@H](Cc1c[nH]c2ccccc12)C(=O)N[C@@H](CC(C)C)C(=O)N[C@@H](CC(C)C)C(=O)N[C@@H](CC(=O)O)C(=O)N[C@H](C(N)=O)[C@@H](C)O)C(C)C)C(=O)O)C(=O)O [SEQ ID NO: 10] | approximately 13 grams | – | – | – | – | 0.90 | – | – | significant suppression of food intake | approximately 17% |
